Experiment [1] concerns the target T1, 5-hydroxytryptamine receptor 1A (Homo sapiens, UniProt P08908).
T1 sequence (P08908 whole entry): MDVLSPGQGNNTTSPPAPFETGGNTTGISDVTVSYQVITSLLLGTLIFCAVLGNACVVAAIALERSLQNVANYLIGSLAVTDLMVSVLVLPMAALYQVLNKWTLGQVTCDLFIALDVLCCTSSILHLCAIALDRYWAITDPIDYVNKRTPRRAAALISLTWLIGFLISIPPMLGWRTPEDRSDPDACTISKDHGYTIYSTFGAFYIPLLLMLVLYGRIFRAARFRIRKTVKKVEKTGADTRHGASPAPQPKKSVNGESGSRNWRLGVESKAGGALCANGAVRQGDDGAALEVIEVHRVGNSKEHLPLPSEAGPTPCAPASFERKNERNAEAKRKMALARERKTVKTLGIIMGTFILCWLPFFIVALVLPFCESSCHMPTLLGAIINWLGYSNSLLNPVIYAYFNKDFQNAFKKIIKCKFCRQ

Experiment [2] concerns the target Sodium-dependent dopamine transporter (Homo sapiens, UniProt Q01959).
Experiment [3] concerns the target Sodium-dependent noradrenaline transporter (Homo sapiens, UniProt P23975).
The target in experiment [4] is T2, Alpha-1A adrenergic receptor (Homo sapiens, UniProt P35348).
T2 sequence (P35348 whole entry): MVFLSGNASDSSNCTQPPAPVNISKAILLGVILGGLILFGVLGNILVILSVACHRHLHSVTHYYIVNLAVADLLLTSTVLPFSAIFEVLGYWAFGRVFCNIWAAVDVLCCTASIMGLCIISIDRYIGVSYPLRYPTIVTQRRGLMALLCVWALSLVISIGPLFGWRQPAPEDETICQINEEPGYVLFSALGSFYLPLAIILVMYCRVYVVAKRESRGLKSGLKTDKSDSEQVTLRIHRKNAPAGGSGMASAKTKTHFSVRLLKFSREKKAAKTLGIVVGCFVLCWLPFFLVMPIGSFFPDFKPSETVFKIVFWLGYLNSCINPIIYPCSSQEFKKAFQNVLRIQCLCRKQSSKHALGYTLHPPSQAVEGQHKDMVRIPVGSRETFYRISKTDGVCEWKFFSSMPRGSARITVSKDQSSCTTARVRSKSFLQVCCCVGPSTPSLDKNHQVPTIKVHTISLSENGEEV
The class given is functional, cell-based.

A further experiment addresses T3, Thromboxane A2 receptor (Homo sapiens, UniProt P21731).
T3 sequence (P21731 whole entry): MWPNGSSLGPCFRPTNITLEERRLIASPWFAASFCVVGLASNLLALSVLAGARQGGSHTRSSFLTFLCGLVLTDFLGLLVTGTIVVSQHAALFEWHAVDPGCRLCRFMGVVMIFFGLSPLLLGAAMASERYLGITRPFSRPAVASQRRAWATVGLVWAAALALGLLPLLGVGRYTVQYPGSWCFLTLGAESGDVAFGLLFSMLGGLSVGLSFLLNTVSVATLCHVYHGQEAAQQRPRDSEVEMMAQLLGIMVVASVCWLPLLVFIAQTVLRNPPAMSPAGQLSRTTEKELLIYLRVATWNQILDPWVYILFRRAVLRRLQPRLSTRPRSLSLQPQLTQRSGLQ
The experiment is classed as functional, cell-based.

Experiment [5] addresses Sodium-dependent serotonin transporter (Homo sapiens, UniProt P31645).
The target of experiment [6] is T4, Muscarinic acetylcholine receptor M1 (Homo sapiens, UniProt P11229).
T4 sequence (P11229 whole entry): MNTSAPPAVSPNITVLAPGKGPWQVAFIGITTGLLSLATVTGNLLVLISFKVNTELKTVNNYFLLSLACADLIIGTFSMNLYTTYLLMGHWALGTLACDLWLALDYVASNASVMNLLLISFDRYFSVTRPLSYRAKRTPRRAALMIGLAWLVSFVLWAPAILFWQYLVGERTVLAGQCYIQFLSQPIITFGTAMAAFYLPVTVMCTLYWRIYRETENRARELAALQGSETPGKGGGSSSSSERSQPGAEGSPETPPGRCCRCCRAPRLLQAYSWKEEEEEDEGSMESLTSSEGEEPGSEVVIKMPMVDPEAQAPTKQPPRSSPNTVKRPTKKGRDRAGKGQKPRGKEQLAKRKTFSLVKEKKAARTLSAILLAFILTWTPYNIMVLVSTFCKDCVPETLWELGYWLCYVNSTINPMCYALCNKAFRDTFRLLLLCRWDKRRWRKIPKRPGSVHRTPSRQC
The experiment is classed as functional, cell-based.

The target of the next experiment is T5, Progesterone receptor (Homo sapiens, UniProt P06401).
T5 sequence (P06401 whole entry): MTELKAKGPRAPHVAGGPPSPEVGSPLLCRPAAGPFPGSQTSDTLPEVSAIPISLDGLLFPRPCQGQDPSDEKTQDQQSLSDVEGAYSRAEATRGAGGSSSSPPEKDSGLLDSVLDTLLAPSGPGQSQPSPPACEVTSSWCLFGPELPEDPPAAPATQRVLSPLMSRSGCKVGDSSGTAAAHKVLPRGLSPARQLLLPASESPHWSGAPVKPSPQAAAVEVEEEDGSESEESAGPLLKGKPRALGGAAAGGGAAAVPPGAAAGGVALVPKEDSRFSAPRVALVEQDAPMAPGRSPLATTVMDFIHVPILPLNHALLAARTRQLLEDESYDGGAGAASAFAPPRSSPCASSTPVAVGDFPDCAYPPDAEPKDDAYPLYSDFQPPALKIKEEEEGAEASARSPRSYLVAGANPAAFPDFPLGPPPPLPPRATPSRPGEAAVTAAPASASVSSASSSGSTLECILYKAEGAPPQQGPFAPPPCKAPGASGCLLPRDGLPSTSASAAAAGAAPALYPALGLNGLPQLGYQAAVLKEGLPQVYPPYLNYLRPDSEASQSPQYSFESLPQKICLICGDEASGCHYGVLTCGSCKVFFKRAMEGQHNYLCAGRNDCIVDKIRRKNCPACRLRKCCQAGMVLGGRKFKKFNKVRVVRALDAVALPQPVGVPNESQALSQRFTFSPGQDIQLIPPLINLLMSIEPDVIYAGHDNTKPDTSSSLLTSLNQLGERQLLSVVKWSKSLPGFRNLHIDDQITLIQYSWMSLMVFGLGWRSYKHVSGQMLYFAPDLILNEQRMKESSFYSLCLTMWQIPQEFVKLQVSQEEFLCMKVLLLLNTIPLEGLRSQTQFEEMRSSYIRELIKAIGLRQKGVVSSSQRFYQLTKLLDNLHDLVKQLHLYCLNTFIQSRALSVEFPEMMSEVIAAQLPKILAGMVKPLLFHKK

A further experiment deals with D(1A) dopamine receptor (Homo sapiens, UniProt P21728).
Experiment [7] addresses 3',5'-cyclic-AMP phosphodiesterase 4A (Homo sapiens, UniProt P27815). The class given is functional.
Also: assay procedure not described here.

Sequence of Sodium-dependent serotonin transporter (P31645 whole entry): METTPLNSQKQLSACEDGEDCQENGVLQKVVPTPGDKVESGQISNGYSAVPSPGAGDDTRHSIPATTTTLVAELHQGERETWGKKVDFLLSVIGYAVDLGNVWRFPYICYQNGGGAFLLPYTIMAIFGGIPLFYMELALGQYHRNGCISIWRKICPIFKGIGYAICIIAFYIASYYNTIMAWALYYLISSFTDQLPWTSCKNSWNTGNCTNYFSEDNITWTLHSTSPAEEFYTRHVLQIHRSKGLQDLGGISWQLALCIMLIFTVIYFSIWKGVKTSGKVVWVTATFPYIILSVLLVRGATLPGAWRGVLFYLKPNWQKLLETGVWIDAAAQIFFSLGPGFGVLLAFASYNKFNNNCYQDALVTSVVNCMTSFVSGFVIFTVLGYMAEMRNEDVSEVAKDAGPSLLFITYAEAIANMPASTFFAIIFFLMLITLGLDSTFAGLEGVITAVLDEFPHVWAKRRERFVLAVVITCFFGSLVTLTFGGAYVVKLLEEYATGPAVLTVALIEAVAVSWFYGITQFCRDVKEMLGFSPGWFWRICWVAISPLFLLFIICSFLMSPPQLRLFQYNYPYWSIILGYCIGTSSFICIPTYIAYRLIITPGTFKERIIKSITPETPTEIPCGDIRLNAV
Sequence of 3',5'-cyclic-AMP phosphodiesterase 4A (P27815 whole entry): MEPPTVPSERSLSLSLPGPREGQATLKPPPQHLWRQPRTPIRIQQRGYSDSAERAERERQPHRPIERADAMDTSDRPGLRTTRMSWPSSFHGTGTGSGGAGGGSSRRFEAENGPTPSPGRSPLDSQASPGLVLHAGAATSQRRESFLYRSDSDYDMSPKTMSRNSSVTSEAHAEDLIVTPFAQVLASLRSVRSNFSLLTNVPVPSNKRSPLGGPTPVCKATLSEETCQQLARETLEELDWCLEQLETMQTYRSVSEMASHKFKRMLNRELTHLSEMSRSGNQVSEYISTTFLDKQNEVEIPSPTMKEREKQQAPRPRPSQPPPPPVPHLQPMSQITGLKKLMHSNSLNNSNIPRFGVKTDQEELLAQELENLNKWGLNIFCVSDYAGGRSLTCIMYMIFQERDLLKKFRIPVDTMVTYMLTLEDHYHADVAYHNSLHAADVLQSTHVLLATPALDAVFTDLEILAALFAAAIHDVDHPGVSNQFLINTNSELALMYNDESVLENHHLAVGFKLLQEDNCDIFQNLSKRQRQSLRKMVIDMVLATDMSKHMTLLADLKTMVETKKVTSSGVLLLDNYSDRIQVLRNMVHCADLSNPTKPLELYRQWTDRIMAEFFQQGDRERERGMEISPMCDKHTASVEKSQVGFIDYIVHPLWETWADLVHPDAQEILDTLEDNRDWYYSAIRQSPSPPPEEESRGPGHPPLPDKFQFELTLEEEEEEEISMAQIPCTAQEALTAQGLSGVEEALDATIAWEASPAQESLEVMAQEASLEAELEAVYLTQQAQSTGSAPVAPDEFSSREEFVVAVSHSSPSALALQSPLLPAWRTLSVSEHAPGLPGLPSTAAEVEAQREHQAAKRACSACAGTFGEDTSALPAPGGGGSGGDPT
Sequence of Sodium-dependent noradrenaline transporter (P23975 whole entry): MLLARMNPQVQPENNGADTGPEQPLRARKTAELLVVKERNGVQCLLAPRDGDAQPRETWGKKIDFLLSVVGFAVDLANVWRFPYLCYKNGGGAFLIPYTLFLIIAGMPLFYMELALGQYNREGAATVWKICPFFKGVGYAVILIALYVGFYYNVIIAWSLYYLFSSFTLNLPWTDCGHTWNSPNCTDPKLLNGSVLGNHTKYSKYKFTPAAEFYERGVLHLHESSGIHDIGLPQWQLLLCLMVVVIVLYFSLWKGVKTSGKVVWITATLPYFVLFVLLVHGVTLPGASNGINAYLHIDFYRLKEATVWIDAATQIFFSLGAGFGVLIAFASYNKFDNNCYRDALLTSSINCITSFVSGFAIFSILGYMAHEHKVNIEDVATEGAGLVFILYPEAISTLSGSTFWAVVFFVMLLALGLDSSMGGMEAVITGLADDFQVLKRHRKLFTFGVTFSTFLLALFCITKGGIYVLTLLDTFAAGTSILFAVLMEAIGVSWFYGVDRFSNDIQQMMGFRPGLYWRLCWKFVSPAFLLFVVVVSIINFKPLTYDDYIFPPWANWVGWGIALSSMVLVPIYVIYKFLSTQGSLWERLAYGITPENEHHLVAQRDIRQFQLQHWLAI
Sequence of Sodium-dependent dopamine transporter (Q01959 whole entry): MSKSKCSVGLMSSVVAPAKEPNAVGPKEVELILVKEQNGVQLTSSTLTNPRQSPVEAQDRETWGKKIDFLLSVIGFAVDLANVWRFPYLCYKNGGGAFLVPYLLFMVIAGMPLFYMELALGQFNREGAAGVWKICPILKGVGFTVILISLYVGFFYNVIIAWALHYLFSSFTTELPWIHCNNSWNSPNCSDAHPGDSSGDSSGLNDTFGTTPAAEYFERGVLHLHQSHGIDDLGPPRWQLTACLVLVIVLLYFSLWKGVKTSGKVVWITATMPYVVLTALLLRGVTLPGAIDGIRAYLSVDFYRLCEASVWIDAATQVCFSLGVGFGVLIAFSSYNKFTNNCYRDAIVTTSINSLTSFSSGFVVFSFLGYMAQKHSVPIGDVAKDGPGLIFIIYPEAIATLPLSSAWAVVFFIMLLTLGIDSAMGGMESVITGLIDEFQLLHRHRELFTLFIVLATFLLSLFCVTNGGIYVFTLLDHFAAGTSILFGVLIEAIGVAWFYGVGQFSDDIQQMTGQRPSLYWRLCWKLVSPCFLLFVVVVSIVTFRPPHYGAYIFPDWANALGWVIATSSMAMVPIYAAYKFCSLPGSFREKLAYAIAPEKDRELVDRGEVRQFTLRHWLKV
Sequence of D(1A) dopamine receptor (P21728 whole entry): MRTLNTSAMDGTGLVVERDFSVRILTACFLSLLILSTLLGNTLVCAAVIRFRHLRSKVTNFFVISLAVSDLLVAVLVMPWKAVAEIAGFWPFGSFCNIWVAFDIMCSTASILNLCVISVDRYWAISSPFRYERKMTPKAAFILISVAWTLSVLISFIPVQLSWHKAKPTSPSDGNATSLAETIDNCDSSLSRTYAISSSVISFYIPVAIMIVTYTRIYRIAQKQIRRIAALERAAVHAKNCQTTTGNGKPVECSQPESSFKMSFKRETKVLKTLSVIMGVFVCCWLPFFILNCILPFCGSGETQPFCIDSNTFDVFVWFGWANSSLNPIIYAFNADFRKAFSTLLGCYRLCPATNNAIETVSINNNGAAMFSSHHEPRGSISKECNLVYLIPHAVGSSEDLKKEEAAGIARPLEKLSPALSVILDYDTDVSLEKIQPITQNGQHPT

With `CCOC(=O)/C=C1\SC(N2CCCCC2)C(=O)N1C` (stereo not given) [ETOZOLIN], the concentration at half-maximal activity (AC50) (in experiment [1]; in experiment [2]; in experiment [3]; in experiment [4]; on Thromboxane A2 receptor; in experiment [5]) was greater than 30 µM in each case. For the same compound, the AC50 (in [6]; on Progesterone receptor; on D(1A) dopamine receptor; in [7]) was greater than 30 µM each time.
Turning to `CCCCOC(=O)C(=O)[C@H]1[C@H](C)C[C@H]2[C@@H]3C[C@H](F)C4=CC(=O)C=C[C@]4(C)[C@H]3[C@@H](O)C[C@@]21C` [FLUOCORTIN BUTYL], the half-maximal activity concentration (AC50) in [1] was greater than 30 µM; in [2] it was 27.2 µM; in experiment [3] it was 29.5 µM; in [4], greater than 30 µM; on Thromboxane A2 receptor, greater than 30 µM; in experiment [5] it was greater than 30 µM. The AC50 in experiment [6] was greater than 30 µM; at Progesterone receptor, 0.711 µM; on D(1A) dopamine receptor it was greater than 30 µM; in experiment [7], greater than 30 µM.
As to `N[C@H]1C(O)O[C@H](CO)[C@@H](O)[C@@H]1O` (stereo not given in full) [GLUCOSAMINE], the AC50 (in experiment [1]; in experiment [2]; in experiment [3]; in experiment [4]; at Thromboxane A2 receptor; in experiment [5]) was greater than 30 µM throughout. For the same compound, the AC50 (in experiment [6]; on Progesterone receptor; on D(1A) dopamine receptor; in experiment [7]) was greater than 30 µM in each case.
On to `CCN(CC)CCNc1ccc(CO)c2sc3ccccc3c(=O)c12` [HYCANTHONE], for which the AC50 in experiment [1] is 7.25 µM; in experiment [2], 12.5 µM; in experiment [3], 11.9 µM; in experiment [4], greater than 30 µM; on Thromboxane A2 receptor, 23.1 µM; in experiment [5] it was 16 µM. For the same compound, the half-maximal activity concentration (AC50) (in experiment [6]; at Progesterone receptor; on D(1A) dopamine receptor; in [7]) was greater than 30 µM in each case.
Take `CC[C@H]1CN2CC[C@H]1C[C@H]2[C@H](O)c1ccnc2ccc(OC)cc12` [HYDROQUININE]: the AC50 was greater than 30 µM in [1]; 29.1 µM in [2]; greater than 30 µM in experiment [3]; greater than 30 µM in experiment [4]; greater than 30 µM at Thromboxane A2 receptor; 3.95 µM in experiment [5]. Further, the AC50 (in experiment [6]; at Progesterone receptor; on D(1A) dopamine receptor; in experiment [7]) was greater than 30 µM each time.
Take `O=[N+]([O-])O[C@@H]1CO[C@H]2[C@@H]1OC[C@@H]2O` [ISOSORBIDE MONONITRATE]: the concentration at half-maximal activity (AC50) (in [1]; in [2]; in experiment [3]; in experiment [4]; at Thromboxane A2 receptor; in experiment [5]) was greater than 30 µM each time. Besides, the half-maximal activity concentration (AC50) (in experiment [6]; at Progesterone receptor; at D(1A) dopamine receptor; in [7]) was greater than 30 µM in each case.
For `Cc1cc(OP(=O)(O)O)c2ccccc2c1OP(=O)(O)O` [MENADIOL SODIUM DIPHOSPHATE], the AC50 (in experiment [1]; in experiment [2]; in experiment [3]; in experiment [4]; on Thromboxane A2 receptor; in experiment [5]) was greater than 30 µM throughout. For the same compound, the AC50 (in experiment [6]; at Progesterone receptor; on D(1A) dopamine receptor; in [7]) was greater than 30 µM each time.
Consider `Cc1ccccc1OCC(O)CO` (stereo not given) [MEPHENESIN], for which the half-maximal activity concentration (AC50) (in [1]; in experiment [2]; in [3]; in experiment [4]; on Thromboxane A2 receptor; in [5]) was greater than 30 µM throughout. The AC50 (in [6]; on Progesterone receptor; on D(1A) dopamine receptor; in experiment [7]) was greater than 30 µM in each case.

For orientation: AC50 means the concentration giving half of the maximal activity seen.

These data come from ChEMBL document CHEMBL5291721, “A preclinical secondary pharmacology resource illuminates target-adverse drug reaction associations of marketed drugs” (Nat Commun, 2023).
